Drawing on ChEMBL document CHEMBL3714766, “Tetrahydroisoquinoline compounds and their use as pyruvate dehydrogenase kinase inhibitors” (2015), this text covers IC50 for 25 compounds.

In test [1] the target is T1, Pyruvate dehydrogenase kinase (Homo sapiens, UniProt Q15119+Q15120+Q16654+Q15118). Kind of test: Inhibition of pyruvate dehydrogenase kinase (unknown origin) assessed as reduction in E1 phosphorylation incubated for 1 hr by DELFIA method. The class given is protein assay.
The target of test [2] is T1, Pyruvate dehydrogenase kinase. Kind of test: Inhibition of pyruvate dehydrogenase kinase in human PC3 cells incubated for 90 mins by phospho(Ser293)E1alpha MSP ELISA method. The class given is cell-based. Particulars: pc-3. On the technique in general: An ELISA detects its analyte on a solid surface through an enzyme-linked reagent.
For test [3] the target is unchanged. Kind of test: Binding affinity to pyruvate dehydrogenase kinase (unknown origin) by VER-00160364 probe based fluorescence polarization assay. Background: Polarisation of emitted light reports the rotation of a fluorescent probe.

For orientation: IC50 means the point on the concentration scale where inhibition reaches its midpoint.

Consider `O=C(c1ccc(O)cc1O)N1c2ccc(-c3ncnc4cccc(F)c34)cc2CCC1c1cccnc1` (centres undefined), for which the IC50 in test [1] came out at 10 nM. `COc1cnc(Cl)nc1-c1ccc2c(c1)CC[C@H](c1cccnc1)N2C(=O)c1cc(Cl)c(O)cc1O`: the IC50 came to 1000 nM in test [2] and 100 nM in test [1].

Consider `O=C(c1cc(Cl)c(O)cc1O)N1c2ccccc2CC[C@@H]1c1cccnc1`, for which the IC50 in test [1] is recorded as 100 nM. As to `Cc1cnc(Cl)nc1-c1ccc2c(c1)CCC(C)N2C(=O)c1cc(Cl)c(O)cc1O` (centres undefined), the IC50 in test [2] worked out at 1000 nM; in test [3], 100 nM. With `Cc1csc2ncnc(-c3ccc4c(c3)CC[C@H](C)N4C(=O)c3ccc(O)cc3O)c12`, the IC50 in test [2] worked out at 1000 nM; in test [3] it was 100 nM.

With `C[C@H]1CCc2cc(-c3ccnc4ccccc34)ccc2N1C(=O)c1ccc(O)cc1O`, the IC50 in test [2] was found to be 1000 nM; in test [3], 100 nM. The like results for `C[C@H]1CCc2cc(C(=O)N(C)Cc3cccs3)ccc2N1C(=O)c1ccc(O)cc1O` were, in that order, 10000 nM and 10 nM. `Cc1cc(S(=O)(=O)N2CC(F)(F)C2)cnc1-c1ccc2c(c1)CCC(c1cccnc1)N2C(=O)c1ccc(O)cc1O` (centres undefined): the IC50 in test [1] came to 10 nM. Take `CSc1nc(-c2ccc3c(c2)CC[C@H](C)N3C(=O)c2ccc(O)cc2O)c2cc[nH]c2n1`: the IC50 in test [2] and in test [3] was 1000 nM throughout. Consider `COc1ccc(CN(C)C(=O)c2ccc3c(c2)CC[C@H](C)N3C(=O)c2ccc(O)cc2O)cc1`, for which the IC50 in test [2] stood at 1000 nM; in test [3], 100 nM.

Turning to `C[C@H]1CCc2cc(-c3ncnc4cccc(F)c34)ccc2N1C(=O)c1ccc(O)cc1O`, the figures for the IC50 in test [2] and in test [3] were 1000 nM and 10 nM, respectively.

With `C[C@H]1CCc2cc(-c3ncnc4ccsc34)ccc2N1C(=O)c1ccc(O)cc1O`, the values for the half-maximal inhibitory concentration (IC50) in test [2] and in test [3] were 1000 nM and 100 nM, respectively.

Regarding `Cc1cc(S(=O)(=O)NCC2CC2)cnc1-c1ccc2c(c1)CC[C@H](C)N2C(=O)c1ccc(O)cc1O`, the IC50 in test [2] stood at 1000 nM; in test [3] it was 100 nM. For `Cc1cnc(Cl)nc1-c1ccc2c(c1)CC[C@H](c1cccnc1)N2C(=O)c1ccc(O)cc1O`, the IC50 stood at 1000 nM in test [2] and 100 nM in test [1]. Regarding `Cc1cc2ccccc2nc1-c1ccc2c(c1)CC[C@H](C)N2C(=O)c1ccc(O)cc1O`, the IC50 in test [2] was found to be 1000 nM; in test [3] it was 100 nM. `Cc1cc(S(=O)(=O)NCc2ccncc2)cnc1-c1ccc2c(c1)CC[C@H](C)N2C(=O)c1ccc(O)cc1O`: the IC50 was 1000 nM in test [2] and 10 nM in test [3]. Consider `Cc1cc(S(=O)(=O)N2CCC(F)(F)CC2)cnc1-c1ccc2c(c1)CCC(c1cccnc1)N2C(=O)c1ccc(O)cc1O` (centres undefined), for which, in test [1], the IC50 turned out to be 10 nM. Regarding `C[C@H]1CCc2cc(-c3nc(Cl)nc4ccsc34)ccc2N1C(=O)c1ccc(O)cc1O`, the IC50 in test [2] and in test [3] was 1000 nM in each case. With `C[C@H]1CCc2cc(-c3nc(Cl)nc4c3ccn4C)ccc2N1C(=O)c1ccc(O)cc1O`, the IC50 in test [2] and in test [3] was 1000 nM in each case. On to `O=C(c1ccc(O)cc1O)N1c2ccccc2CCC1C(F)(F)F` (centres undefined), for which, in test [1], the IC50 is reported as 100 nM. Regarding `Cc1nc(C(F)(F)F)nc(-c2ccc3c(c2)CC[C@H](C)N3C(=O)c2ccc(O)cc2O)c1C`, the IC50 stood at 1000 nM in test [2] and 100 nM in test [3]. In the same order, the values of `COCCNS(=O)(=O)c1cnc(-c2ccc3c(c2)CC[C@H](C)N3C(=O)c2ccc(O)cc2O)c(C)c1` are 10000 nM and 100 nM. Regarding `Cc1cc(S(=O)(=O)NCc2ccccc2)cnc1-c1ccc2c(c1)CCC(c1cccnc1)N2C(=O)c1ccc(O)cc1O` (centres undefined), the IC50 in test [1] was 10 nM. Consider `COc1cnc(Cl)nc1-c1ccc2c(c1)CC[C@H](C)N2C(=O)c1ccc(O)cc1O`, for which the results for the IC50 in test [2] and in test [3] were 1000 nM and 100 nM, respectively. In the same order, the values of `C[C@H]1CCc2cc(C(=O)N(C)Cc3cccc4ccccc34)ccc2N1C(=O)c1ccc(O)cc1O` are 1000 nM and 100 nM.
